Reference: patent US4657861A, “S-tetrahydroprotoberberineoxidase, process for producing the same and use thereof” (priority 1984, dated 1987)
Read-outs that look alike come from different tables or passages of the source.

Experiments:
[1] = biological target: T1, S-tetrahydroprotoberberineoxidase (Berberis wilsoniae, UniProt F1BVB6); assay: KM value of S-tetrahydroprotoberberineoxidase for substrate; assay type: biochemical, Berberis wilsonae var. subcaulialata; set-up: S-tetrahydroprotoberberineoxidase can be obtained by extraction from plant materials; from tissue; host or cells: plant material (Berberis wilsoniae inferred); details: at 40° C. and pH 8.9
Method: KM value for R,S-corypalmine at 40° C. and pH 8.9, 1.3 μMoles

[2] = biological target: T1, S-tetrahydroprotoberberineoxidase; assay: Inhibition of S-tetrahydroprotoberberineoxidase; assay type: biochemical, Berberis wilsonae var. subcaulialata; set-up: S-tetrahydroprotoberberineoxidase can be obtained by extraction from plant materials; from tissue; host or cells: plant material (Berberis wilsoniae inferred)
[3] = biological target: T1, S-tetrahydroprotoberberineoxidase; assay: Enzymatic oxidation of R,S-substrates with S-tetrahydroprotoberberineoxidase preparation, photometric analysis; details: 37° C.; for Fate of R-form under enzymatic oxidation: pH=8.9; for Conversion of S-form into oxidized product: pH=8.9, admission of air
[4] = biological target: T1, S-tetrahydroprotoberberineoxidase; details: pH 8.9
[5] = biological target: T2, S-tetrahydroprotoberberineoxidase immobilized on calcium alginate (Berberis wilsoniae, UniProt F1BVB6); assay: Enzymatic oxidation with S-tetrahydroprotoberberineoxidase immobilized on calcium alginate, photometric analysis; assay type: biochemical, Berberis wilsonae var. subcaulialata; details: immobilized enzyme, 30° C., 150 hours, pH=8.9, admission of air
T2 construct: S-tetrahydroprotoberberineoxidase can be obtained by extraction from plant materials; from tissue; host or cells: plant material (Berberis wilsoniae inferred)
T2 sequence (F1BVB6 25-530): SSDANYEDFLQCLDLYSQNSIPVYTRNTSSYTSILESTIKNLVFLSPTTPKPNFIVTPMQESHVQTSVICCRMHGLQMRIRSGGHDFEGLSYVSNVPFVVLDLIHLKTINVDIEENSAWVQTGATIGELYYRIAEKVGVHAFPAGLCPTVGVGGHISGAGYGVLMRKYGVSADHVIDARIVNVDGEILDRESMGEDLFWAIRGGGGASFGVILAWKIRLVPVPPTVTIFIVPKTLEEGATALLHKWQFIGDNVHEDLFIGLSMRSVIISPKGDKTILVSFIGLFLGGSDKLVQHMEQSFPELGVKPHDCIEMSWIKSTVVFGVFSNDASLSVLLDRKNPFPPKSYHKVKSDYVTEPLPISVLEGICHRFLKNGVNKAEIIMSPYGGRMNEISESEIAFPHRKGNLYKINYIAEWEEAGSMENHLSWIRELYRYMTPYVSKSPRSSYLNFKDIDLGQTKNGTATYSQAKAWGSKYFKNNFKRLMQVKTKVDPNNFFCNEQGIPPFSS

COc1cc2c(cc1O)CCN1Cc3c(ccc(OC)c3OC)CC21 (racemic) [R,S-corypalmine]
Km [1]: 1.3 µM

O=c1c(O)c(-c2ccc(O)cc2O)oc2cc(O)cc(O)c12 [morin]
Inhibition of the enzyme in the presence of the substance [2]: Complete and reversible inhibition

COc1ccc2c(c1)CCN[C@@H]2Cc1cc(O)cc(O)c1 [R-form]
Fate of R-form under enzymatic oxidation ([3]; after 16 hours): remained unchanged

COc1ccc2c(c1OC)CN1CCc3cc4c(cc3[C@@H]1C2)OCO4 [S-canadine]
Conversion of S-form into oxidized product ([3]; after 2 hours): 100%

COc1cc2c(cc1O)CCN1Cc3c(ccc(OC)c3OC)C[C@@H]21 [S-corypalmine]
Conversion of S-form into oxidized product ([4]; 2 h): 100%

COc1ccc(C[C@@H]2NCCc3cc(OC)c(O)cc32)cc1O [S-norreticuline]
Conversion to 1,2-dehydronorreticuline [5]: complete conversion | Conversion of S-form into oxidized product ([3]; after 16 hours): 100%

COc1cc2c(cc1O)CCN1Cc3c(ccc(OC)c3OC)C[C@H]21 [R-corypalmine]
Fate of R-form under enzymatic oxidation ([3]; after 2 hours): remained unchanged

COc1ccc2c(c1OC)CN1CCc3cc4c(cc3[C@H]1C2)OCO4 [R-canadine]
Fate of R-form under enzymatic oxidation ([3]; after 2 hours): remained unchanged

COc1ccc(C[C@H]2NCCc3cc(OC)c(O)cc32)cc1O [R-norreticuline]
Fate of R-form under enzymatic oxidation ([3]; after 16 hours): remained unchanged

CC(=O)CC(C)=O [acetylacetone]
Inhibition of the enzyme in the presence of the substance [2]: Complete and reversible inhibition

COc1ccc2c(c1)CCN[C@H]2Cc1cc(O)cc(O)c1 [S-[1-(3',5'-dihydroxy-benzyl)-6-methoxy-1,2,3,4-tetrahydroisoquinoline]]
Conversion of S-form into oxidized product ([4]; 16 h): 100%
